In ChEMBL document CHEMBL1201862, “PubChem BioAssay data set” (2004):
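A five-concentration, 48-hour dose response in 96-well plates underlies each endpoint, interpolated linearly between surrounding concentrations. The concentration for 50% growth inhibition is given as GI50.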 The source made the active and inactive calls. Cut-off read from the data, not from the text of the source: active = GI50 up to about 1.1 µM and inactive = higher.

Legend:
Assay in all cases: NCI tumour cell line growth inhibition, 48 h
A498 = test system: A498
A549 = test system: A549
COLO 205 = test system: COLO 205
HOP-62 = test system: HOP-62
HOP-92 = test system: HOP-92
IGROV-1 = test system: IGROV-1
K562 = test system: K562
KM12 = test system: KM12
MOLT-4 = test system: MOLT-4
NCI-H226 = test system: NCI-H226
NCI-H522 = test system: NCI-H522
OVCAR-3 = test system: OVCAR-3
OVCAR-5 = test system: OVCAR-5
OVCAR-8 = test system: OVCAR-8
SK-OV-3 = test system: SK-OV-3
SN12C = test system: SN12C
SNB-19 = test system: SNB-19
SW-620 = test system: SW-620
U-251 = test system: U-251
MCF7 = test system: MCF7

| SMILES | GI50 (A498) | GI50 (A549) | GI50 (COLO 205) | GI50 (HOP-62) | GI50 (HOP-92) | GI50 (IGROV-1) | GI50 (K562) | GI50 (KM12) | GI50 (MOLT-4) | GI50 (NCI-H226) | GI50 (NCI-H522) | GI50 (OVCAR-3) | GI50 (OVCAR-5) | GI50 (OVCAR-8) | GI50 (SK-OV-3) | GI50 (SN12C) | GI50 (SNB-19) | GI50 (SW-620) | GI50 (U-251) | GI50 (MCF7) |
| --- | --- | --- | --- | --- | --- | --- | --- | --- | --- | --- | --- | --- | --- | --- | --- | --- | --- | --- | --- | --- |
| CC(SC1=CC(=O)c2c(O)ccc(O)c2C1=O)C(=O)O (stereo not given) | > 62.7 µM (inactive) | 97.3 µM (inactive) | 22.5 µM (inactive) | > 100 µM (inactive) | > 58.5 µM (inactive) | > 44.9 µM (inactive) | 13.8 µM (inactive) | > 100 µM (inactive) | 7.48 µM (inactive) | > 58.5 µM (inactive) | 1.51 µM (inactive) | 21.4 µM (inactive) | > 100 µM (inactive) | 23.5 µM (inactive) | > 100 µM (inactive) | > 48.2 µM (inactive) | > 100 µM (inactive) | > 40.8 µM (inactive) | > 42.1 µM (inactive) |  |
| COc1ccc(CCn2ccc(C)n2)c(OC)c1 |  | > 100 µM (inactive) | > 100 µM (inactive) | > 100 µM (inactive) |  | > 100 µM (inactive) | > 100 µM (inactive) | > 100 µM (inactive) | > 100 µM (inactive) |  |  | > 100 µM (inactive) | > 100 µM (inactive) | > 100 µM (inactive) | > 100 µM (inactive) | 46 µM (inactive) | > 100 µM (inactive) | > 100 µM (inactive) | > 100 µM (inactive) | > 100 µM (inactive) |
| CC/C=C(\C(=C/CC)[N+](=O)[O-])[N+](=O)[O-] |  | 74.6 µM (inactive) | 17.8 µM (inactive) | 58.2 µM (inactive) | 23.7 µM (inactive) | 17.6 µM (inactive) | 30.3 µM (inactive) | > 10 µM (inactive) | 42.7 µM (inactive) | 95.5 µM (inactive) |  | 16.1 µM (inactive) | 13.4 µM (inactive) | 21.4 µM (inactive) | > 100 µM (inactive) | 18.9 µM (inactive) | > 100 µM (inactive) | 17.1 µM (inactive) | 17.7 µM (inactive) | 16.7 µM (inactive) |
| CC1CCC(=O)C(C(O)CC2CC(=O)N(c3ccccc3)C(=O)C2)C1 (stereo not given) | > 100 µM (inactive) | > 100 µM (inactive) | > 100 µM (inactive) | > 100 µM (inactive) | > 100 µM (inactive) | > 100 µM (inactive) | > 100 µM (inactive) | > 100 µM (inactive) | > 100 µM (inactive) | > 100 µM (inactive) | > 100 µM (inactive) | > 100 µM (inactive) | > 100 µM (inactive) | > 100 µM (inactive) | > 100 µM (inactive) | > 100 µM (inactive) | > 100 µM (inactive) | > 100 µM (inactive) | > 100 µM (inactive) |  |
| CC1=C(C(=O)Nc2ccccc2C)C(c2ccc(Cl)c(Cl)c2)C(C(=O)Nc2ccccc2C)=C(C)N1 | 27.5 µM (inactive) | 24.2 µM (inactive) | 16.4 µM (inactive) | 28.6 µM (inactive) | 14.4 µM (inactive) | 19 µM (inactive) | 20.3 µM (inactive) | 26.2 µM (inactive) | 12.6 µM (inactive) | 15.2 µM (inactive) | 14.5 µM (inactive) | 17.6 µM (inactive) | 23.1 µM (inactive) | 37.2 µM (inactive) | 22.9 µM (inactive) | 18.7 µM (inactive) | 44.2 µM (inactive) | 31.6 µM (inactive) | 19.3 µM (inactive) |  |
| NCCCCNCCCNC(=O)c1nc(-c2nc(CCN)sc2Cl)sc1Cl | > 100 µM (inactive) | 44.5 µM (inactive) | > 100 µM (inactive) | 59.7 µM (inactive) | > 100 µM (inactive) | > 100 µM (inactive) | 9.35 µM (inactive) | 27.5 µM (inactive) | > 100 µM (inactive) | > 100 µM (inactive) | 21 µM (inactive) | > 100 µM (inactive) | > 100 µM (inactive) | > 100 µM (inactive) | > 100 µM (inactive) | > 100 µM (inactive) | > 100 µM (inactive) | 16.7 µM (inactive) | > 100 µM (inactive) |  |
| CC(=O)NC(CCCNC(=O)N(C)N=O)C(=O)NCc1ccccc1 (stereo not given) | > 100 µM (inactive) | > 100 µM (inactive) | > 100 µM (inactive) | > 100 µM (inactive) | > 100 µM (inactive) | > 100 µM (inactive) | > 100 µM (inactive) | > 100 µM (inactive) | > 100 µM (inactive) | > 100 µM (inactive) | > 100 µM (inactive) | > 100 µM (inactive) | > 100 µM (inactive) | > 100 µM (inactive) | > 100 µM (inactive) | > 100 µM (inactive) | > 100 µM (inactive) | > 100 µM (inactive) | > 100 µM (inactive) |  |
| CC(=O)C1CC(C)=CCC12C(=O)Nc1ccccc12 (stereo not given) | > 100 µM (inactive) | > 100 µM (inactive) | > 100 µM (inactive) | > 100 µM (inactive) | > 100 µM (inactive) | > 100 µM (inactive) | > 100 µM (inactive) | > 100 µM (inactive) | 43 µM (inactive) | > 100 µM (inactive) | > 100 µM (inactive) | > 100 µM (inactive) | > 100 µM (inactive) | > 100 µM (inactive) | > 100 µM (inactive) | > 100 µM (inactive) | > 100 µM (inactive) | > 100 µM (inactive) | > 100 µM (inactive) |  |
| CC1=NN(c2ccccc2)C(=O)C12[C@H](c1ccccc1)C2(C#N)C#N (stereo not given in full) | 16.9 µM (inactive) | 16.3 µM (inactive) | 2.29 µM (inactive) | 17.3 µM (inactive) | 2.64 µM (inactive) | 14.2 µM (inactive) | 1.85 µM (inactive) | 9.64 µM (inactive) | 0.679 µM (active) | 12.8 µM (inactive) | 2.88 µM (inactive) | 7.03 µM (inactive) | 11.5 µM (inactive) | 2.84 µM (inactive) | 18.6 µM (inactive) | 3.95 µM (inactive) | 15.8 µM (inactive) | 1.87 µM (inactive) | 15.4 µM (inactive) |  |
| COC(=O)C#CC(N)=O | > 100 µM (inactive) | > 100 µM (inactive) | > 100 µM (inactive) | > 100 µM (inactive) | 20.6 µM (inactive) | > 100 µM (inactive) | 21.8 µM (inactive) | > 100 µM (inactive) | 22.3 µM (inactive) | > 100 µM (inactive) | > 63.1 µM (inactive) | > 100 µM (inactive) | > 100 µM (inactive) | 30.7 µM (inactive) | > 100 µM (inactive) | > 100 µM (inactive) | > 100 µM (inactive) | 23.8 µM (inactive) | > 100 µM (inactive) |  |
| COc1ccc2c(c1)c(=O)c1ccccc1n2/C=C/C(=O)O | > 100 µM (inactive) | > 100 µM (inactive) | > 56.8 µM (inactive) | > 100 µM (inactive) | > 100 µM (inactive) | > 100 µM (inactive) | > 100 µM (inactive) | > 100 µM (inactive) | > 100 µM (inactive) | > 100 µM (inactive) | > 100 µM (inactive) | > 100 µM (inactive) | > 100 µM (inactive) | > 100 µM (inactive) | > 100 µM (inactive) | > 100 µM (inactive) | > 100 µM (inactive) | > 100 µM (inactive) | > 27 µM (inactive) |  |
| NC(=O)c1oc([N+](=O)[O-])c(-c2ccccc2)c1-c1ccccc1 |  | 21.1 µM (inactive) | 16.8 µM (inactive) | 25.8 µM (inactive) | 16.1 µM (inactive) | 12.9 µM (inactive) | 14.6 µM (inactive) | 13.6 µM (inactive) | 17.1 µM (inactive) | 11 µM (inactive) | 12.6 µM (inactive) | 1.24 µM (inactive) | 26.1 µM (inactive) | 24.8 µM (inactive) | 36.1 µM (inactive) | 0.0367 µM (active) | 38.5 µM (inactive) | 27 µM (inactive) | 24.3 µM (inactive) | 29.5 µM (inactive) |
| COc1cc(/C=C2/C(=O)NC(Cc3cc(OC)c(OC)c(C)c3OC)C(=O)N2Cc2ccccc2)c(OC)c(C)c1OC (stereo not given) | 44.4 µM (inactive) | > 100 µM (inactive) | 17.7 µM (inactive) | > 100 µM (inactive) | 17.8 µM (inactive) | 61.9 µM (inactive) | 44.2 µM (inactive) | 55.5 µM (inactive) | 23 µM (inactive) | 58.6 µM (inactive) | 18.2 µM (inactive) | 47.2 µM (inactive) | 93.8 µM (inactive) | 47.4 µM (inactive) | 49.2 µM (inactive) | 54.3 µM (inactive) | 81.3 µM (inactive) | 80.2 µM (inactive) | 48.2 µM (inactive) |  |
| CC(=O)OC(C)C(=O)C1c2cccc(O)c2C(=O)c2c(O)cc(C)cc21 (stereo not given) | 1.59 µM (inactive) | 0.322 µM (active) | 1.65 µM (inactive) | 0.343 µM (active) | 0.288 µM (active) | 0.478 µM (active) | 0.354 µM (active) | 0.33 µM (active) | 3.06 µM (inactive) | 0.319 µM (active) | 1.52 µM (inactive) | 0.427 µM (active) | 1.31 µM (inactive) | 1.06 µM (active) | 0.546 µM (active) | 0.879 µM (active) | 0.344 µM (active) | 0.502 µM (active) | 0.26 µM (active) |  |
| O=C1NC(=O)C(CC2CCCCCCCCCCC2=O)C(=O)N1 (stereo not given) |  | > 100 µM (inactive) | > 100 µM (inactive) | > 100 µM (inactive) | > 100 µM (inactive) | > 100 µM (inactive) |  | > 100 µM (inactive) | 39.6 µM (inactive) | > 100 µM (inactive) | > 100 µM (inactive) | > 100 µM (inactive) | > 100 µM (inactive) | > 100 µM (inactive) | > 100 µM (inactive) | > 100 µM (inactive) | > 100 µM (inactive) | > 100 µM (inactive) | > 100 µM (inactive) | > 100 µM (inactive) |
